Laboratory results taken from patent US6656690B2, “Mass spectrometric methods for biomolecular screening” (priority 1998, dated 2003).

Target: 16S A site 27mer RNA
Experiment: ESI-FTICR mass spectrometric (MASS) binding assay, 16S A-site 27-mer RNA model
Set-up: species or system prokaryotic
Protocol: The ESI-FTICR mass spectrum depicted in FIG. 26 was acquired from a […] mixture of untagged 16S and tagged 18S in the presence of an equimolar mixture of five aminoglycosides. It is to be understood that other biomolecules may be used in place of the aminoglycosides. The aminoglycosides have been selected from two classes of 2-deoxystreptamines: 4,5-disubstituted (paromomycin, and lividomycin), and 4,6-disubstituted (tobramycin, sisomicin, and bekanamycin), present at 500 nM each. Complexes corresponding to 1:1 binding of individual aminoglycosides were observed between 16S and all members of the aminoglycoside mixture, with the apparent affinities estimated from the abundances of the respective complexes differing substantially. Signal intensities from the complexes with paromomycin (m/z 1925.572) and lividomycin (m/z 1954.790) are consistent with MS-measured dissociation constants of 110 nM and 28 nM, respectively. The intensities of 16S complexes with tobramycin (m/z 1895.960), bekanamycin (m/z 1899.171), and sisomicin (m/z 1891.972) were reduced, consistent with solution dissociation constants of […]. Wang, et al., Biochemistry, 1997, 36, 768-779. […] The spectrum is calibrated using multiple isotope peaks of the (M-5H^+)^5− and (M-4H^+)^4− charge states of the free RNA as internal mass standards which brackets the m/z range in which complexes are observed. The average mass measurement error obtained for the complexes in FIG. 26 is 2.1 ppm when m/z differences are measured between the most abundant (4 ^13C) isotope peak of 16S and each complex. This post calibration scheme is easily automated which enables rapid, high precision mass measurements of affinity selected ligands against multiple targets in a high throughput mode.
A preferred first step of MASS screening involves mixing the RNA target (or targets) with a combinatorial library of ligands designed to bind to a specific site on the target molecule(s). Specific noncovalent complexes formed in solution between the target(s) and any library members are transferred into the gas phase and ionized by ESI. As described herein, from the measured mass difference between the complex and the free target, the identity of the binding ligand can be determined. The dissociation constant of the complex can be determined in two ways: if a ligand with a known binding affinity for the target is available, a relative Kd can be measured by using the known ligand as an internal control and measuring the abundance of the unknown complex to the abundance of the control, alternatively, if no internal control is available, Kd's can be determined by making a series of measurements at different ligand concentrations and deriving a Kd value from the “titration” curve.
Electrospray ionization Fourier transform ion cyclotron resonance mass spectrometry was performed on a solution containing […] 16S RNA (the 27-mer construct shown in FIG. 24) and 500 nM paromomycin is depicted in FIG. 13. A 1:1 complex was observed between the paromomycin and the RNA consistent with specific aminoglycoside binding at the A-site. The insets show the measured and calculated isotope envelopes of the (M-5H+)5− species of the free RNA and the RNA-paromomycin complex. High precision mass measurements were acquired using isotope peaks of the (M-5H+)^5− and (M-4H^+)^4− charge states of the free RNA as internal mass standards and measuring the m/z difference between the free and bound RNA.
ESI-MS measurements of a solution containing a fixed concentration of RNA at different concentrations of ligand were obtained. By measuring the ratio of bound:unbound RNA at varying ligand concentrations, the Kd was determined by 1/slope of the “titration curve”. The MS derived value of 110 nM is in good agreement with previously reported literature value of 200 nM. […]

Q: With `NC[C@@H]1O[C@H](O[C@H]2[C@@H](O)[C@H](O[C@@H]3[C@@H](O)[C@H](N)C[C@H](N)[C@H]3O[C@H]3O[C@H](CO)[C@@H](O)[C@H](O)[C@H]3N)O[C@@H]2CO)[C@H](N)[C@@H](O)[C@@H]1O` [paromomycin] as the compound, how does the Kd (ESI-FTICR MS, 16S A site 27mer, read-out: MS-measured dissociation constant (KD)) read?
A: 110 nM

Q: And the “complexes observed with 16S (in words)” value (aminoglycosides 500 nM each, mixture with untagged 16S and tagged 18S)?
A: 1:1 complex and High affinity complexes
